Measured values: patent US9586951B2 (FUJIFILM Corporation, priority 2013, dated 2017)
Counter-ions that a name gives are not always drawn.

Biological target: T1, ATM (Homo sapiens, UniProt Q13315)
T1 construct: detecting phosphorylation of Chk2 in a human non-small cell lung cancer cell line NCI-H460 (ATCC company); host or cells: NCI-H460 human non-small cell lung cancer cells
Assay: ATM inhibition test (phosphorylation of Chk2 generated by ionizing radiation, AlphaScreen SureFire)
Format: cell-based
Details: phosphorylated Chk2 in NCI-H460 cells, ionizing radiation 8Gy, 1 hour after test compound treatment; read-out: ATM inhibitory activity
Summary of the method: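 Human NCI-H460 lung cancer cells were treated with compound for 1 h, then irradiated at 8Gy and incubated 1 h at 37° C. Phospho-Chk2 was quantified by AlphaScreen SureFire; inhibition % was normalised between irradiated untreated and non-irradiated untreated wells.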

T1 sequence (Q13315 whole entry): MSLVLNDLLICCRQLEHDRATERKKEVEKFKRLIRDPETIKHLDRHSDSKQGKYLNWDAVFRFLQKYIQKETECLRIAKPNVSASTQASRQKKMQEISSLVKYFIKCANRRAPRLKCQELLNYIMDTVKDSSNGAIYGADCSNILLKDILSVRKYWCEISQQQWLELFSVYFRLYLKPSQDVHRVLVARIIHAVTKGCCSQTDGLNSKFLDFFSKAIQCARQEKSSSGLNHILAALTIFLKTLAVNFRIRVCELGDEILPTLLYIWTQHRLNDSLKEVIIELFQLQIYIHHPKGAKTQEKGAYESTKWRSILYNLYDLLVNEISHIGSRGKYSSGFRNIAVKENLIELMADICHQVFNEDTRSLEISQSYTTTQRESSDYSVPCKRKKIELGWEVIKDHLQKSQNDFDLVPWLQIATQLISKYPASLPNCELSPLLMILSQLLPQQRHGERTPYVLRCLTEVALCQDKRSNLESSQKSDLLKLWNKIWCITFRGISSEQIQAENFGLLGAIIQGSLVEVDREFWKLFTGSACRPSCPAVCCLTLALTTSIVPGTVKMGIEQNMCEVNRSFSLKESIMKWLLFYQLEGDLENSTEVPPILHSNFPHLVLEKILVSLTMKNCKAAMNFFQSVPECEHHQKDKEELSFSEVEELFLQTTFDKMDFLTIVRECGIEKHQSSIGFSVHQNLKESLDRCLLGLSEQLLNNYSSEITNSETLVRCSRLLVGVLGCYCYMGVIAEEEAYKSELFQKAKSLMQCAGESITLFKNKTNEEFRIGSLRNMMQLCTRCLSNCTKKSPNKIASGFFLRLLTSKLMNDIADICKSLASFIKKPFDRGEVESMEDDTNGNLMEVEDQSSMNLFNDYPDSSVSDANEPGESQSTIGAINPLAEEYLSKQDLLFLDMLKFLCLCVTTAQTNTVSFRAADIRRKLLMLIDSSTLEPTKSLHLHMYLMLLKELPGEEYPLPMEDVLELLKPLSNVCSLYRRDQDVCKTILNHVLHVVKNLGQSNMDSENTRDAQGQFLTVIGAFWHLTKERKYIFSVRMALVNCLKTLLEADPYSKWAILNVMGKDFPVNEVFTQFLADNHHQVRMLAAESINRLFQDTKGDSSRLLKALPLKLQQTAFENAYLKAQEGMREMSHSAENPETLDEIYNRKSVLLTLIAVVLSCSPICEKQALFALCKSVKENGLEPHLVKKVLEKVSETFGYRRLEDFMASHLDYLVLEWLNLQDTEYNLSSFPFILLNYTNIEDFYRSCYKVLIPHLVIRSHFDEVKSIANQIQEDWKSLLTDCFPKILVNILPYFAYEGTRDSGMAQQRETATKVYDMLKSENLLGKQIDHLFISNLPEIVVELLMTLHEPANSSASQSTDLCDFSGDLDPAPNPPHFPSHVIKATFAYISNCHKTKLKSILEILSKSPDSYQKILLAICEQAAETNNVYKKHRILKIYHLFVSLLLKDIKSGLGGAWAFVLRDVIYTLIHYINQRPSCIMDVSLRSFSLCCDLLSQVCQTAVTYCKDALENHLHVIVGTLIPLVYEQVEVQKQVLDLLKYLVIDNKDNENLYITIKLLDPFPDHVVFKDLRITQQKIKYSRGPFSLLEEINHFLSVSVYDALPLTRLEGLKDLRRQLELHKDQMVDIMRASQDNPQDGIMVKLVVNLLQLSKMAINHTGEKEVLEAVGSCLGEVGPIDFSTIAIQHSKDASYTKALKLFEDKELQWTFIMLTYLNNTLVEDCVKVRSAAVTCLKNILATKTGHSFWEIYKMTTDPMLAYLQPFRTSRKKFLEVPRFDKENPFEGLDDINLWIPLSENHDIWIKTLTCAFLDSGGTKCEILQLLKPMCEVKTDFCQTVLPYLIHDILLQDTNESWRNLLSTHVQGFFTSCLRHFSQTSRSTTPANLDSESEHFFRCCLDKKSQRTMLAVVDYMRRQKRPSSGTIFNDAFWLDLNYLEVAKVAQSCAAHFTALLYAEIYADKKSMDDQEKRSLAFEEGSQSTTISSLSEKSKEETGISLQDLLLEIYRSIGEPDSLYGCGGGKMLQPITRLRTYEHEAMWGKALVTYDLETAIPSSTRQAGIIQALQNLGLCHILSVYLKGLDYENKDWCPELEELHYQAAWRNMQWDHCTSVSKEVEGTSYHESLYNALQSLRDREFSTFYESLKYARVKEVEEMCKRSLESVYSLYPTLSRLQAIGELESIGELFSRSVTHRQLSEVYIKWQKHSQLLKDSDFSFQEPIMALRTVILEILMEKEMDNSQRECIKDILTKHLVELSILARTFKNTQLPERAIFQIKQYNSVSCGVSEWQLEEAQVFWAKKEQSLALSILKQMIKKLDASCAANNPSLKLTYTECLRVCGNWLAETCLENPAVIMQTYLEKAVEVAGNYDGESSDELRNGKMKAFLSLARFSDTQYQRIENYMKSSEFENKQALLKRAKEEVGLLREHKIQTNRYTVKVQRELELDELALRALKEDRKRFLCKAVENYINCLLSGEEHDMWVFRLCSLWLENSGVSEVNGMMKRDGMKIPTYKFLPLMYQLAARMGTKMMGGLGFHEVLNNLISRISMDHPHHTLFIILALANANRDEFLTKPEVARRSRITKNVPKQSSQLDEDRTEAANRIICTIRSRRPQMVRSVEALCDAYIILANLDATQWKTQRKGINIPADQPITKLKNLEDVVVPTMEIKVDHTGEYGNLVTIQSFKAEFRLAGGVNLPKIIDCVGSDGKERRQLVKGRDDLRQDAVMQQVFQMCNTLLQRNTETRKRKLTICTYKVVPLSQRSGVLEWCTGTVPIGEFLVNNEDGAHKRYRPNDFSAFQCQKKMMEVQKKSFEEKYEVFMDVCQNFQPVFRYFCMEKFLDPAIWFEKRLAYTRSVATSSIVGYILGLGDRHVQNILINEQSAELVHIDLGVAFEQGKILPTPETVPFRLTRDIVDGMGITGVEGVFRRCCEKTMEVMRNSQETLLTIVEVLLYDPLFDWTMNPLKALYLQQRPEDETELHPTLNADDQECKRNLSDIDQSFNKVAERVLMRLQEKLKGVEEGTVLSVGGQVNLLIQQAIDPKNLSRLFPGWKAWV

IC50	SMILES
100 to 500 nM	CN(C)c1ncc(CN2CCC(Nc3ccc4c(c3)Cc3cccc(-c5cc(N6CCOCC6)cc(=O)[nH]5)c3O4)CC2)cn1 [Example 2-28-13, 6-(7-((1-((2-(Dimethylamino)pyrimidin-5-yl)methyl)piperidin-4-yl)amino)-9H-xanthen-4-yl)-4-morpholino pyridin-2(1H)-one]
500 to 2000 nM	O=c1cc(N2CCOCC2)cc(-c2cccc3c2Oc2ccc(NC4CCCNC4)cc2S3)[nH]1 (stereo not drawn) [Example 4-5, 4-morpholino-6-(8-(piperidin-3-ylamino)phenoxathiin-4-yl)pyridin-2(1H)-one]
100 to 500 nM	CC(Nc1ccc2c(c1)Sc1cccc(-c3cc(N4CCOCC4)cc(=O)[nH]3)c1S2)c1ncccn1 (stereo not drawn) [Example 1-12-68, 4-Morpholino-6-(7-((1-(pyrimidin-2-yl)ethyl)amino)thianthren-1-yl)pyridin-2 (1H)-one]
100 to 500 nM	O=c1cc(N2CCOCC2)cc(-c2nccc3c2Oc2ccc(NCc4cc(C5CC5)ccn4)cc2C3)[nH]1 [Example 2-41-6, 6-(7-(((4-Cyclopropylpyridin-2-yl)methyl)amino)-5H-chromeno[2,3-c]pyridin-1-yl)-4-morpliolino pyridin-2 (1H)-one]
< 100 nM	COCC[C@H](CN1CCOCC1)Nc1ccc2c(c1)Sc1cccc(-c3cc(N4CCOCC4)cc(=O)[nH]3)c1S2 [Example 1-59-1, (R)-6-(7-((4-methoxy-1-morpholinobutan-2-yl)amino)thianthren-1-yl)-4-morpholinopyridin-2(1H)-one]
500 to 2000 nM	COc1ncccc1CNc1ccc2c(c1)Cc1cccc(-c3cc(N4CCOCC4)cc(=O)[nH]3)c1S2 [Example 3-8-8, 6-(7-(((2-Methoxypyridin-3-yl)methyl)amino)-9H-thioxanthen-4-yl)-4-morpholino pyridin-2 (1H)-one]
100 to 500 nM	CN1CCC(CNc2ccc3c(c2)Sc2cccc(-c4cc(N5CCOCC5)cc(=O)[nH]4)c2S3)CC1 [Example 1-12-31, 6-(7-(((1-Methylpiperidin-4-yl)methyl)amino)thianthren-1-yl)-4-morpholino pyridin-2(1H)-one]
100 to 500 nM	Cc1cncc(CNc2ccc3c(c2)Cc2cccc(-c4cc(N5CCOCC5)cc(=O)[nH]4)c2O3)c1 [Example 2-2-9, 6-(7-(((5-Methylpyridin-3-yl)methyl)amino)-9H-xanthen-4-yl)-4-morpholino pyridin-2(1H)-one]
100 to 500 nM	CC1CC(Nc2ccc3c(c2)Cc2cccc(-c4cc(N5CCOCC5)cc(=O)[nH]4)c2O3)CCN1CCc1ccccc1 (stereo not drawn) [Example 2-19-1, 6-(7-((2-Methyl-1-phenethylpiperidin-4-yl)amino)-9H-xanthen-4-yl)-4-morpholinopyridin-2(1H)-one]
100 to 500 nM	O=C1CCN1c1cncc(CNc2ccc3c(c2)Cc2cccc(-c4cc(N5CCOCC5)cc(=O)[nH]4)c2O3)c1 [Example 2-2-70, 4-Morpholino-6-(7-(((5-(2-oxoazetidin-1-yl)pyridin-3-yl)methyl)amino)-9H-xanthen-4-yl)pyridin-2(1H)-one]
100 to 500 nM	Cc1cnc(C(CCN(C)C)Nc2ccc3c(c2)Cc2cccc(-c4cc(=O)cc(N5CCOCC5)o4)c2O3)cn1 (single isomer, unassigned) [Example 12-6, 2-(7-((3-(Dimethylamino)-1-(5-methylpyrazine-2-yl)propyl)amino)-9H-xanthen-4-yl)-6-morpholino-4H-pyran-4-one]
500 to 2000 nM	CN1CCN(CCNc2ccc3c(c2)Cc2cccc(-c4cc(N5CCOCC5)cc(=O)[nH]4)c2S3)CC1 [Example 3-4-3, 6-(7-((2-(4-Methylpiperazin-1-yl)ethyl)amino)-9H-thioxanthen-4-yl)-4-morpholino pyridin-2 (1H)-one]
100 to 500 nM	Nc1ccc(CCN2CCC(Nc3ccc4c(c3)Cc3cccc(-c5cc(N6CCOCC6)cc(=O)[nH]5)c3O4)CC2)cc1 [Example 2-31, hydrochloride of 6-(7-((1-(4-aminophenethyl)piperidin-4-yl)amino)-9H-xanthen-4-yl)-4-morpholinopyridin-2(1H)-one]
100 to 500 nM	Cc1cc(CNc2ccc3c(c2)Cc2ccnc(-c4cc(N5CCOCC5)cc(=O)[nH]4)c2O3)ccn1 [Example 2-42-3, 6-(7-(((2-Methylpyridin-4-yl)methyl)amino)-5H-chromeno[2,3-c]pyridin-1-yl)-4-morpholinopyridin-2(1H)-one]
100 to 500 nM	Cc1ccc(C(CC(C)C)Nc2ccc3c(c2)Sc2cccc(-c4cc(N5CCOCC5)cc(=O)[nH]4)c2S3)nc1 (stereo not drawn) [Example 1-12-120, 6-(7-((3-Methyl-1-(5-methylpyridin-2-yl)butyl)amino)thianthren-1-yl)-4-morpholino pyridin-2(1H)-one]
< 100 nM	N#Cc1ccc(CNc2ccc3c(c2)Cc2cccc(-c4cc(N5CCOCC5)cc(=O)[nH]4)c2O3)s1 [Example 2-14-32, 6-(7-(((5-Isocycanothiophen-2-yl)methyl)amino)-9H-xanthen-4-yl)-4-morpholino pyridin-2(1H)-one]
100 to 500 nM	CC(CNc1ccc2c(c1)Sc1cccc(-c3cc(N4CCOCC4)cc(=O)[nH]3)c1S2)N1CCOCC1 (single isomer, unassigned) [Example 1-9-2-3, 4-morpholino-6-(7-((2-morpholinopropyl)amino)thianthren-1-yl)pyridin-2(1H)-one]

IC50	SMILES
100 to 500 nM	Cc1cc(CNc2ccc3c(c2)Sc2cccc(-c4cc(N5CCOCC5)cc(=O)[nH]4)c2O3)ccn1 [Example 4-4-3, 6-(8-(((2-Methylpyridin-4-yl)methyl)amino)phenoxathiin-4-yl)-4-morpholino pyridin-2 (1H)-one]
< 100 nM	O=c1cc(N2CCOCC2)cc(-c2cccc3c2Oc2ccc(NCc4cnc5ccccc5c4)cc2C3)[nH]1 [Example 2-2-46, 4-Morpholino-6-(7-((quinolin-3-ylmethyl)amino)-9H-xanthen-4-yl) pyridin-2(1H)-one]
100 to 500 nM	Cc1cccc(C(C)Nc2ccc3c(c2)Cc2ccnc(-c4cc(N5CCOCC5)cc(=O)[nH]4)c2O3)n1 (stereo not drawn) [Example 2-42-6, 6-(7-((1-(6-Methylpyridin-2-yl)ethyl)amino)-5H-chromeno[2,3-c]pyridin-1-yl)-4-morpholinopyridin-2(1H)-one]
100 to 500 nM	COCC(CN1CCCCC1)Nc1ccc2c(c1)Sc1cccc(-c3cc(N4CCOCC4)cc(=O)[nH]3)c1S2 (stereo not drawn) [Example 1-17-2, 6-(7-((1-Methoxy-3-(piperidin-1-yl)propan-2-yl)amino)thianthren-1-yl)-4-morpholinopyridin-2(1H)-one]
100 to 500 nM	O=c1cc(N2CCOCC2)cc(-c2cccc3c2Oc2ccc(NC4CCN(CCc5ccncc5)CC4)cc2C3)[nH]1 [Example 2-30-7, 4-Morpholino-6-(7-((1-(2-(pyridin-4-yl)ethyl)piperidin-4-yl)amino)-9H-xanthen-4-yl)pyridin-2(1H)-one]
100 to 500 nM	CC(Nc1ccc2c(c1)Sc1cccc(-c3cc(N4CCOCC4)cc(=O)[nH]3)c1S2)c1cc(C#N)ncn1 (single isomer, unassigned) [Example 1-12-146-2, 6-(1-((6-(4-morpholino-6-oxo-1,6-dihydropyridin-2-yl)thianthren-2-yl)amino)ethyl)pyrimidine-4-carbonitrile]
< 100 nM	Cc1ccc(C(Nc2ccc3c(c2)Sc2cccc(-c4cc(N5CCOCC5)cc(=O)[nH]4)c2S3)[C@@H]2CN(C)CCO2)nc1 (single isomer, unassigned) [Example 1-56-10]
100 to 500 nM	Cc1ccccc1CCN1CCC(Nc2ccc3c(c2)Cc2cccc(-c4cc(N5CCOCC5)cc(=O)[nH]4)c2O3)CC1 [Example 2-30-4, 6-(7-((1-(2-Methylphenethyl)piperidin-4-yl)amino)-9H-xanthen-4-yl)-4-morpholino pyridin-2 (1H)-one]
100 to 500 nM	O=c1cc(N2CCOCC2)cc(-c2cccc3c2Oc2ccc(NCc4nccs4)cc2C3)[nH]1 [Example 2-14-31, 4-Morpholino-6-(7-((thiazol-2-ylmethyl)amino)-9H-xanthen-4-yl) pyridin-2(1H)-one]
500 to 2000 nM	O=c1cc(N2CCOCC2)cc(-c2cccc3c2Sc2ccc(NC(CO)CN4CCCC4)cc2S3)[nH]1 (stereo not drawn) [Example 1-37-3, 6-(7-((1-Hydroxy-3-(pyrrolidin-1-yl)propan-2-yl)amino)thianthren-1-yl)-4-morpholino pyridin-2(1H)-one]
500 to 2000 nM	CN(C)[C@H]1CC[C@H](N(C)c2ccc3c(c2)Cc2cccc(-c4cc(N5CCOCC5)cc(=O)[nH]4)c2O3)CC1 [Example 2-10, 6-(7-(((Trans)-4-(dimethylamino)cyclohexyl)(methyl)amino)-9H-xanthen-4-yl)-4-morpholinopyridin-2(1H)-one]
100 to 500 nM	Cc1cccc(C(CNC(=O)OC(C)(C)C)Nc2ccc3c(c2)Cc2cccc(-c4cc(N5CCOCC5)cc(=O)[nH]4)c2O3)n1 (stereo not drawn) [Example 2-14-46]
< 100 nM	CC(C)(C)OC(=O)n1cc(-c2cncc(CNc3ccc4c(c3)Sc3cccc(-c5cc(N6CCOCC6)cc(=O)[nH]5)c3S4)c2)cn1 [Example 1-44-6, tert-Butyl 4-(5-(((6-(4-morpholino-6-oxo-1,6-dihydropyridin-2-yl)thianthren-2-yl)amino)methyl)pyridin-3-yl)-1H-pyrazole-1-carboxylate]
100 to 500 nM	COC[C@H](CN1CCOCC1)Nc1ccc2c(c1)Cc1cccc(-c3cc(N4CCOCC4)cc(=O)[nH]3)c1O2 [Example 12-5, (S)-6-(7-((1-methoxy-3-morpholinopropan-2-yl)amino)-9H-xanthen-4-yl)-4-morpholinopyridin-2(1H)-one]
100 to 500 nM	CC(CN(C)C1CCCCC1)Nc1ccc2c(c1)Sc1cccc(-c3cc(N4CCOCC4)cc(=O)[nH]3)c1S2 (stereo not drawn) [Example 1-13-9, 6-(7-((1-(Cyxlohexyl(methyl)amino)propan-2-yl)amino)thianthren-1-yl)-4-morpholino pyridin-2(1H)-one]
500 to 2000 nM	O=c1cc(N2CCOCC2)cc(-c2cccc3c2Oc2ccc(NCCN4CCOCC4)cc2C3)[nH]1 [Example 2-23-2, 4-Morpholino-6-(7-((2-morpholinoethyl)amino)-9H-xanthen-4-yl)pyridin-2(1H)-one]
